From patent publication US20120009124A1, “USE OF BUFFERS FOR RADIONUCLIDE COMPLEXATION” (GUERBET, priority 2009, published 2012)
Read-outs that look alike come from different tables or passages of the source. Where a SMILES comes first, the peptide text is derived from it. [ ]: non-standard residue; d: D form.

Tests used:
CXCR4 = CXCR4 (Homo sapiens, UniProt P61073); experiment: IC50 of cyclic peptides for targeting CXCR4; type: binding; conditions: peptide biovectors for targeting CXCR4
[1] = Excerpt: It is also possible to combine several buffers in combination (buffer mixtures) in particular so as to optimize the buffering capacity ranges and the choice of the chelates and of the biovectors, it being specified that not all chelates necessarily have the same complexation, depending on the buffer under consideration.

CXCR4, sequence (P61073 whole entry, species assumed): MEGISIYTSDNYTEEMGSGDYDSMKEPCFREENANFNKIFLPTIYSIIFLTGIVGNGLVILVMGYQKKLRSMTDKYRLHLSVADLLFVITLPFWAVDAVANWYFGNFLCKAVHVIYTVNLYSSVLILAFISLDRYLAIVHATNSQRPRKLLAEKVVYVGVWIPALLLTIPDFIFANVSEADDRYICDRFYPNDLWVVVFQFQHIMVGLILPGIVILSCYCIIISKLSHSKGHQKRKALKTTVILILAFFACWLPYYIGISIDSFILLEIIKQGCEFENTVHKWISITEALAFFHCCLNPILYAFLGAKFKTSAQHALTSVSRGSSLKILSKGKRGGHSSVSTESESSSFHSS

Row | Molecule | IC50 (CXCR4) [nM] | buffering capacity (pKa value +/-1) [1] | further results
1 | N=C(N)NCCC[C@@H]1NC(=O)[C@H](CCCNC(=N)N)NC(=O)[C@@H](Cc2ccc(O)cc2)NC(=O)CNC(=O)[C@H](Cc2nc3ccccc3s2)NC1=O [Bth] | 18 |  | 
2 | N=C(N)NCCC[C@@H]1NC(=O)[C@H](CCCNC(=N)N)NC(=O)[C@@H](Cc2ccc(O)cc2)NC(=O)CNC(=O)[C@H](Cc2c[nH]c3ccccc23)NC1=O [Trp] (cyclo([dY]RRWG)) | 13 |  | 
3 | O=C(O)O [carbonate] |  |  | buffering capacity (pKa value +/-1) ([1]; pH range): 5.35-11.33
4 | O=C(O)C(O)C(O)C(=O)O (centres unmarked) [tartrate] |  | 2.04-5.37 | 
5 | phosphate |  | 1.12-13.67 | 
